Assay results from PubChem BioAssay (NCI).
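Interpolation was linear, between the two tested concentrations surrounding the appropriate level; five concentrations were tested over 48 hours in 96-well plates. Abbreviation: GI50, concentration required for 50% inhibition of growth. TGI denotes the concentration required for complete inhibition of growth.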

Key:
Assay in all cases: NCI-60 cell line screen, 48 h
COLO 205 colon = test system: COLO 205 colon
HT29 colon = test system: HT29 colon
OVCAR-8 ovarian = test system: OVCAR-8 ovarian
SK-MEL-5 melanoma = test system: SK-MEL-5 melanoma
SNB-78 CNS = test system: SNB-78 CNS
UACC-62 melanoma = test system: UACC-62 melanoma
UO-31 renal = test system: UO-31 renal
DMS 114 small cell lung = test system: DMS 114 small cell lung
NCI-H226 lung = test system: NCI-H226 lung
MDA-MB-231 breast = test system: MDA-MB-231 breast

| SMILES | TGI (COLO 205 colon) | TGI (HT29 colon) | TGI (OVCAR-8 ovarian) | TGI (SK-MEL-5 melanoma) | TGI (SNB-78 CNS) | TGI (UACC-62 melanoma) | TGI (UO-31 renal) | GI50 (DMS 114 small cell lung) | TGI (DMS 114 small cell lung) | GI50 (HT29 colon) | GI50 (NCI-H226 lung) | TGI (NCI-H226 lung) | GI50 (OVCAR-8 ovarian) | GI50 (SK-MEL-5 melanoma) | GI50 (UACC-62 melanoma) | GI50 (UO-31 renal) | TGI (MDA-MB-231 breast) | GI50 (COLO 205 colon) | GI50 (MDA-MB-231 breast) |
| --- | --- | --- | --- | --- | --- | --- | --- | --- | --- | --- | --- | --- | --- | --- | --- | --- | --- | --- | --- |
| CC(C)(C)CC(C)(C)c1cc2c(O)c(c1)Cc1cc(C(C)(C)CC(C)(C)C)cc(c1O)Cc1cc(C(C)(C)CC(C)(C)C)cc(c1O)Cc1cc(C(C)(C)CC(C)(C)C)cc(c1O)Cc1cc(C(C)(C)CC(C)(C)C)cc(c1O)Cc1cc(C(C)(C)CC(C)(C)C)cc(c1O)Cc1cc(C(C)(C)CC(C)(C)C)cc(c1O)Cc1cc(C(C)(C)CC(C)(C)C)cc(c1O)C2 | > 100 µM | > 100 µM | > 100 µM | > 100 µM | > 100 µM | > 100 µM | > 100 µM | – | – | – | – | – | – | – | – | – | – | – | – |
| CC1=CC[C@@H]2C(=O)C=CC=C[C@H]12.[C-]#[O+].[C-]#[O+].[C-]#[O+].[Fe] | – | > 100 µM | > 100 µM | > 100 µM | – | > 100 µM | > 100 µM | > 100 µM | > 100 µM | > 100 µM | > 100 µM | > 100 µM | > 100 µM | > 100 µM | > 100 µM | > 100 µM | – | – | – |
| CCCCCCCCCCCc1cc(=O)c2c(O)cccc2o1 | > 100 µM | > 100 µM | > 100 µM | > 100 µM | > 100 µM | > 100 µM | > 100 µM | – | > 100 µM | – | – | > 100 µM | – | – | – | – | – | – | – |
| CCOc1ccc2c(c1)[n+]([O-])c(-c1ccc([N+](=O)[O-])cc1)c(N)[n+]2[O-] | > 100 µM | > 100 µM | > 100 µM | > 100 µM | > 100 µM | – | > 100 µM | – | > 100 µM | – | – | > 100 µM | – | – | – | – | – | – | – |
| Cc1cccc(/C=N/N=C(\N)NO)n1 | > 100 µM | > 100 µM | > 100 µM | > 100 µM | > 100 µM | 8.83 µM | – | – | > 100 µM | – | – | – | – | – | – | – | – | – | – |
| CC(C)=CC1(C)/C(=N\O)C(C)(CC(C)C)C(=O)N1O (configuration not stated) | > 100 µM | > 100 µM | > 100 µM | > 100 µM | > 100 µM | > 100 µM | > 100 µM | – | > 100 µM | – | – | > 100 µM | – | – | – | – | – | – | – |
| COC(=O)CCC(=O)Nc1cc(C)ccc1C | > 100 µM | > 100 µM | > 100 µM | > 100 µM | > 100 µM | > 100 µM | > 100 µM | – | > 100 µM | – | – | > 100 µM | – | – | – | – | – | – | – |
| CCOC(=O)C1=C(Nc2cccc3ccccc23)OCC1=O | > 100 µM | > 100 µM | > 100 µM | > 100 µM | > 100 µM | > 100 µM | > 100 µM | – | – | – | – | > 100 µM | – | – | – | – | – | – | – |
| CCCCCC/C=C\CCCCCCCCCc1cccc(OC)c1O | > 100 µM | > 100 µM | > 100 µM | > 100 µM | – | > 100 µM | > 100 µM | – | – | – | – | > 100 µM | – | – | – | – | > 100 µM | – | – |
| CCN1Cc2c(/C=C/c3ccccc3)nc3ccc(OC)cc3c2N(c2cccc(Cl)c2)C1 | 3 µM | 3.03 µM | 4.29 µM | 3 µM | – | 3.06 µM | 2.95 µM | – | – | 1.45 µM | 1.65 µM | 3.5 µM | 1.84 µM | 1.59 µM | 1.49 µM | 1.38 µM | 3.69 µM | 1.59 µM | 1.75 µM |
| CC(C)(C)c1cc(C#N)c2c(c1)C(=O)OC2(c1ccccc1)c1ccccc1C#N (configuration not stated) | > 100 µM | > 100 µM | > 100 µM | – | > 100 µM | > 100 µM | > 100 µM | – | > 100 µM | – | – | > 100 µM | – | – | – | – | – | – | – |
| COc1cc2c3c(n(CCCN=[N+]=[N-])c(=O)c2cc1OC)-c1ccc(NC(C)=O)cc1C3=O | > 50 µM | > 50 µM | > 50 µM | > 50 µM | – | > 50 µM | > 50 µM | – | – | > 50 µM | > 50 µM | > 50 µM | > 50 µM | 11.2 µM | > 50 µM | 46.2 µM | > 50 µM | > 50 µM | > 50 µM |
| C=CCC(O)c1cc(OC)ccc1OC (configuration not stated) | > 100 µM | > 100 µM | > 100 µM | > 100 µM | – | > 100 µM | > 100 µM | – | > 100 µM | – | – | > 100 µM | – | – | – | – | – | – | – |
| Nc1nc(N)c2cc(S(=O)(=O)c3ccccc3)ccc2n1 | > 100 µM | > 100 µM | > 100 µM | > 100 µM | – | > 100 µM | > 100 µM | – | – | 0.634 µM | 5.87 µM | > 100 µM | 1.31 µM | 1.14 µM | 0.511 µM | 13.3 µM | > 100 µM | 6.99 µM | 8.07 µM |
| COC(=O)C(Br)(C(=O)OC)C(Br)C(Br)C(Br)c1ccccc1 (configuration not stated) | 3.56 µM | 3.34 µM | 8.15 µM | 7.27 µM | – | 6.56 µM | 3.3 µM | – | – | 1.8 µM | 2.19 µM | 5.71 µM | 3.03 µM | 2.71 µM | 2.28 µM | 1.64 µM | 9.71 µM | 1.87 µM | 3.11 µM |
| O=C(CC(=O)c1cccc2ccccc12)C(=O)Nc1nccs1 | > 100 µM | > 100 µM | > 100 µM | > 100 µM | > 100 µM | > 100 µM | > 100 µM | – | – | – | – | > 100 µM | – | – | – | – | – | – | – |
| CN1CCC(n2cnc(-c3ccc(F)cc3)c2-c2ccnc(Nc3ccccc3)n2)CC1 | 7.19 µM | > 25 µM | > 25 µM | 9.43 µM | – | > 23 µM | > 11.7 µM | – | – | 3.95 µM | 18.3 µM | > 25 µM | 8.86 µM | 4.14 µM | 6.54 µM | 0.969 µM | > 25 µM | 3.34 µM | 13.6 µM |
| O=C(Oc1c(Cl)c(Cl)c(Cl)c(Cl)c1Cl)C1CCCN1C(=O)OCc1ccccc1 (configuration not stated) | 3.88 µM | 12 µM | 15.9 µM | 5.74 µM | – | 12.6 µM | 12.3 µM | – | – | 3.71 µM | 3.82 µM | 21.7 µM | 3.43 µM | 2.26 µM | 3.24 µM | 2.9 µM | 6.6 µM | 2.01 µM | 2.42 µM |
| C#CCn1c2c(c3ccccc3c1=O)C(=O)c1ccccc1-2 | > 100 µM | 65.9 µM | 82.3 µM | 22.1 µM | – | 57.1 µM | 13.9 µM | – | – | – | – | 79.3 µM | – | – | – | – | 39.1 µM | – | – |
